Data set [1] has as its system subjects with acute coronary syndrome. As to conditions: phase III trial; cited from earlier work.
Data set [2] concerns Balb/c mice. The data set is described as follows: Skin safety of daily topical cream on shaved backs of mice. The class given is in vivo. An excerpt:
Wild type Balb/c mice of 6-8 weeks of age were used to determine the safety and efficacy of application of a cream containing an inhibitor of the Erk pathway. Animal studies were approved by the Albany Medical Center Institutional Review Board. The fur of the back was removed with an application of Nair. Three days later, three marks were made on the backs of the mice and treated with a cream containing trametinib (an Erk pathway inhibitor), vehicle cream (without an active ingredient) or nothing daily for five days. One hour after the last application, the spots were treated with one cream or the other, and cutaneous inflammation was induced via exposure to 1-Fluoro-2,4-dinitrobenzene (hereafter DNFB). Six hours later mice were euthanized and the skin spots were processed for histological analysis.
More specifically, to determine whether a cream containing an inhibitor of the Erk activation pathway would effectively penetrate the skin and protect it from an external injury, four mice were treated once a day for five consecutive days on a shaved back with a cream containing 0.1 mg/ml trametinib and cream without drug as described in FIG. 4. Regions labeled ‘U’ were left untreated and represent the baseline normal skin. […] Regions labeled ‘T’ were treated with a cream containing trametinib as the active ingredient. […]

Consider two compounds from patent publication US11065252B2, “Treatment of rosacea with P38 and Erk kinase pathway inhibitors” (Albany Medical College, priority 2016, dated 2021).

As for `Cc1c(F)cc(C(=O)NC2CC2)cc1-c1ccc(C(=O)NCC(C)(C)C)cn1` [Losmapimod], in data set [1], the “Efficacy in reducing the incidence of cardiovascular events” value is “did not demonstrate efficacy” and the “Safety profile in trial” value is “good safety profile”.
For the compound `CC(=O)Nc1cccc(-n2c(=O)n(C3CC3)c(=O)c3c(Nc4ccc(I)cc4F)n(C)c(=O)c(C)c32)c1` [trametinib, Trametinib], the “Skin changes after application of cream (photographs)” value in data set [2] (cream containing 0.1 mg/ml trametinib, topical, once a day for five days, shaved back) is reported as “No skin changes”. Also, in data set [2] (topical cream containing trametinib, five days), the “Acute adverse effect in the skin” value is recorded as “does not elicit an acute adverse effect”.
